Measured values: US9522920B2, “Bromodomain inhibitors and uses thereof” (Constellation Pharmaceuticals, Inc., priority 2010, dated 2016)
Read-outs that look alike come from different tables or passages of the source.

Columns and labels:
[1] = molecular target: T1, BRD4(BD1) (Homo sapiens, UniProt O60885); assay: BRD4 AlphaLisa binding assay (Alphascreen)
T1 construct: His; made in house
Description: Specifically, in a 384 well ProxiPlate BRD4(BD1) (30 nM final) was combined with peptide (200 nM final) in 40 mM HEPES (pH 7.0), 40 mM NaCl, 1 mM DTT, 0.01% (w/v) BSA, and 0.008% (w/v) Brij-35 either in the presence of DMSO (final 1.2% DMSO) or compound dilution series in DMSO. After 20 minute incubation at room temperature Alpha streptavidin donor beads and AlphaLisa anti-Flag acceptor beads were added to a final concentration of 10 ug/mL each. After three hours equilibration plates were read on an Envision instrument and IC50s calculated using a four parameter non-linear curve fit.

[2] = system: IL-6 secretion; assay: Cell-based IL-6 quantification assay (ELISA, Mesoscale) in LPS-stimulated THP-1 cells; conditions: read-out: IL6
Description: 100,000 THP-1 cells were seeded in RPMI1640-10% FBS in 96-well plates. LPS (E. Coli Invitrogen) in RPMI-10% FBS at a final concentration of 4 μg/mL was added to the wells and the cells are then incubated in the presence of various concentrations of compounds for 16 h. Plates are spun ([…], 5 min), an aliquot of 25 uL supernatant is transferred in to an ELISA plate (Mesoscale technology, MSD) and the detection of IL-6 is performed using manufacturer's instructions. The amount of cells in each well is assessed using CellTiter-Glo® (Promega). The ratio of ELISA value/CellTiter-Glo value is used to calculate the percent of inhibition of IL-6 secretion.

[3] = system: MYC mRNA; assay: cMyc RNA quantification assay (QuantiGene) in MV4:11 cells; format: cell-based; conditions: read-out: MYC-MV411
Description: (§1) MV4:11 (AML) or Raji (Burkitt's lymphoma) cells were seeded in a 96-well plate and incubated in the presence of various concentrations of compounds for 4 h. Relative mRNA levels were quantitated by using QuantiGene 2.0 assay (Affymetrix) according to the manufacturer's recommendation. Signals were detected by using an Envision plate reader (Perkin-Elmer). Biological duplicates were averaged and normalized to vehicle (DMSO) control to calculate percent MYC mRNA levels.

[4] = system: MYC mRNA; assay: cMyc RNA quantification assay (QuantiGene) in Raji cells; format: cell-based; conditions: Homo sapiens, 4 h
Description: as §1

[5] = Table 14, BRD4 AlphaLisa Binding Assay, read-out: Alpha screen
[6] = Homo sapiens, THP-1, 16 h, Table 14, THP-1 cells, LPS, 16 h
[7] = Homo sapiens, MV4-11, 4 h, Table 14, MV4:11 cells
[8] = Table 6, BRD4(BD1) 30 nM, H4-tetraacetyl peptide 200 nM, read-out: BRD4 Alphascreen IC50
[9] = Homo sapiens, THP-1, 16 h, Table 7, THP-1 cells, LPS 4 μg/mL, 16 h, normalised to CellTiter-Glo
[10] = Table 7, Raji (Burkitt's lymphoma) cells

Row | Compound | IC50 [1, 5] [nM] | IC50 [2, 6] [nM] | IC50 [3, 7] [nM] | also measured
1 | Cc1noc2c1-c1ccccc1C(c1ccc(Cl)cc1)=N[C@H]2CC(N)C(F)(F)F (mixture of isomers) [Compound 232, Mixture of (2S)-3-((4S)-6-(4-chlorophenyl)-1-methyl-4H-benzo[c]isoxazolo[4,5-e]azepin-4-yl)-1,1,1-trifluoropropan-2-amine and (2R)-3-((4S)-6-(4-chlorophenyl)-1-methyl-4H-benzo[c]isoxazolo[4,5-e]azepin-4-yl)-1,1,1-trifluoropropan-2-amine] | > 1000 | > 1000 | > 1000 | 
2 | CCOC(=O)NC1N=C(c2ccc(Cl)cc2)c2ccccc2-c2c(C)noc21 (single isomer, unassigned) [Compound 254, Ethyl (6-(4-chlorophenyl)-1-methyl-4H-benzo[c]isoxazolo[4,5-e]azepin-4-yl)carbamate] | 500 to 1000 |  |  | IC50 ([2]; Table 14, THP-1 cells, LPS, 16 h): > 1000 nM; IC50 ([3]; Table 14, MV4:11 cells, 4 h): > 1000 nM
3 | CNc1nccc2c1C(c1ccc(Cl)cc1)=NCc1onc(C)c1-2 [Compound 173, 6-(4-Chlorophenyl)-N,1-dimethyl-4H-isoxazolo[5,4-c]pyrido[4,3-e]azepin-7-amine] |  |  |  | IC50 [1, 8]: < 500 nM; IC50 [2, 9]: < 500 nM; IC50 [4, 10]: < 500 nM
4 | CCNc1nccc2c1C(c1ccc(Cl)cc1)=NCc1onc(C)c1-2 [Compound 174, 6-(4-Chlorophenyl)-N-ethyl-1-methyl-4H-isoxazolo[5,4-c]pyrido[4,3-e]azepin-7-amine] |  |  |  | IC50 [1, 8]: < 500 nM; IC50 [2, 9]: < 500 nM; IC50 [4, 10]: 500 to 1000 nM
5 | Cc1noc2c1-c1ccnc(N(C)C)c1C(c1ccc(Cl)cc1)=NC2 [Compound 175, 6-(4-Chlorophenyl)-N,N,1-trimethyl-4H-isoxazolo[5,4-c]pyrido[4,3-e]azepin-7-amine] |  |  |  | IC50 [1, 8]: < 500 nM; IC50 [2, 9]: 500 to 1000 nM; IC50 [4, 10]: > 1000 nM
6 | Cc1noc2c1-c1sc(C)c(C)c1C(Oc1ccccc1)=N[C@H]2CC(N)=O [Compound 186, 2-((6S)-2,3,9-trimethyl-4-phenoxy-6H-isoxazolo[5,4-c]thieno[2,3-e]azepin-6-yl)acetamide] |  |  |  | IC50 [1, 8]: 500 to 1000 nM; IC50 ([2]; Homo sapiens, THP-1, 16 h): 500 to 1000 nM; IC50 [4, 10]: > 1000 nM
7 | Cc1noc2c1-c1sc(C)c(C)c1C(c1ccc(Cl)cc1)=N[C@H]2Cc1ncc[nH]1 [Compound 187, (6S)-6-((1H-imidazol-2-yl)methyl)-4-(4-chlorophenyl)-2,3,9-trimethyl-6H-isoxazolo[5,4-c]thieno[2,3-e]azepine] |  |  |  | IC50 [1, 8]: < 500 nM; IC50 ([2]; Homo sapiens, THP-1, 16 h): > 1000 nM; IC50 [4, 10]: > 1000 nM
8 | Cc1noc2c1-c1sc(C)c(C)c1C(c1ccc(Cl)cc1)=N[C@H]2Cc1nccs1 [Compound 188, (6S)-4-(4-chlorophenyl)-2,3,9-trimethyl-6-(thiazol-2-ylmethyl)-6H-isoxazolo[5,4-c]thieno[2,3-e]azepine] |  |  |  | IC50 [1, 8]: < 500 nM; IC50 [2, 9]: < 500 nM; IC50 [4, 10]: > 1000 nM
9 | Cc1noc2c1-c1sc(C)c(C)c1C(c1cscn1)=N[C@H]2CC(N)=O [Compound 198] | < 500 | < 500 |  | IC50 ([4]; Table 14, Raji cells): 500 to 1000 nM
10 | Cc1noc2c1-c1ccc(Cl)cc1C(c1ccc(C(F)(F)F)cc1)=N[C@H]2CC(=O)O [Compound 200] | > 1000 | > 1000 |  | IC50 ([4]; Table 14, Raji cells): > 1000 nM
11 | Cc1noc2c1-c1ccc(Cl)cc1C(c1ccc(C(F)(F)F)cc1)=N[C@H]2CC(N)=O [Compound 201] | < 500 | < 500 |  | IC50 ([4]; Table 14, Raji cells): 500 to 1000 nM
12 | Cc1noc2c1-c1ccc(F)cc1C(c1ccc(C#N)cc1)=N[C@H]2CC(N)=O [Compound 212] | < 500 | < 500 | < 500 | 
13 | Cc1noc2c1-c1ccccc1C(c1ccc(Cl)cc1)=NC2C#N (stereo not shown) [Compound 215, 6-(4-chlorophenyl)-1-methyl-4H-benzo[c]isoxazolo[4,5-e]azepine-4-carbonitrile] | > 1000 | > 1000 | > 1000 | 
14 | Cc1noc2c1-c1ccc(-c3ccc(N)nc3)cc1C(c1ccc(F)cc1)=N[C@H]2CC(N)=O [Compound 216] | < 500 | < 500 | < 500 | 
15 | COc1ccc2c(c1)C(c1ccc(Cl)cc1)=N[C@@H](CC(N)=O)c1onc(C)c1-2 [Compound 217, 2-((4S)-6-(4-chlorophenyl)-8-methoxy-1-methyl-4H-benzo[c]isoxazolo[4,5-e]azepin-4-yl)acetamide] | < 500 | < 500 | < 500 | 
16 | CNc1ccc2c(n1)-c1c(C)noc1CN=C2c1ccc(Cl)cc1 [Compound 221, 5-(4-Chlorophenyl)-N,10-dimethyl-7H-isoxazolo[5,4-c]pyrido[2,3-e]azepin-2-amine] | > 1000 | > 1000 | > 1000 | 

More lines, main results first:

Row | IC50 [1, 5] [nM] | IC50 [2, 6] [nM] | IC50 [3, 7] [nM] | Compound | also measured
17 | > 1000 | > 1000 | > 1000 | CC(=O)NC(C[C@@H]1N=C(c2ccc(Cl)cc2)c2ccccc2-c2c(C)noc21)C(F)(F)F (mixture of isomers) [Compound 244, Mixture of N-((2S)-3-((4S)-6-(4-chlorophenyl)-1-methyl-4H-benzo[c]isoxazolo[4,5-e]azepin-4-yl)-1,1,1-trifluoropropan-2-yl)acetamide and N-((2R)-3-((4S)-6-(4-chlorophenyl)-1-methyl-4H-benzo[c]isoxazolo[4,5-e]azepin-4-yl)-1,1,1-trifluoropropan-2-yl)acetamide] | 
18 | < 500 | < 500 | < 500 | CCOC(=O)NC1N=C(c2ccc(Cl)cc2)c2ccccc2-c2c(C)noc21 (single isomer, unassigned) [Compound 253, Ethyl (6-(4-chlorophenyl)-1-methyl-4H-benzo[c]isoxazolo[4,5-e]azepin-4-yl)carbamate] | 
19 | > 1000 | 500 to 1000 |  | Cc1noc2c1-c1ccccc1C(c1ccc(F)cn1)=N[C@H]2CC(N)=O [Compound 196] | IC50 ([4]; Table 14, Raji cells): > 1000 nM
20 | < 500 | < 500 |  | Cc1noc2c1-c1ccc(OC(F)(F)F)cc1C(c1ccc(Cl)cc1)=N[C@H]2CC(N)=O [Compound 197] | IC50 ([4]; Table 14, Raji cells): < 500 nM
21 | < 500 | < 500 |  | Cc1noc2c1-c1ccccc1C(c1ccc(Cl)cc1)=N[C@H]2CC(=O)NCCF [Compound 199] | IC50 ([4]; Table 14, Raji cells): < 500 nM
22 | < 500 | < 500 |  | Cc1noc2c1-c1ccccc1C(c1ccc(Cl)cc1)=N[C@H]2CC(=O)NC(C)(C)C [Compound 205] | IC50 ([4]; Table 14, Raji cells): > 1000 nM
23 | < 500 | < 500 | 500 to 1000 | Cc1noc2c1-c1ccc(Cl)cc1C(c1ccc(F)cc1)=N[C@H]2CC(N)=O [Compound 211] | 
24 | < 500 | < 500 | < 500 | Cc1noc2c1-c1ccc(-c3ccc(N)nc3)cc1C(c1ccc(Cl)cc1)=N[C@H]2CC(N)=O [Compound 213] | 
25 | < 500 | < 500 | < 500 | Cc1noc2c1-c1ccccc1C(c1ccc(Cl)cc1)=N[C@H]2CC(=O)NCCO [Compound 214] | 
26 | > 1000 | > 1000 | > 1000 | Cc1noc2c1-c1ccccc1C(c1ccc(Cl)cc1)=NC2C(N)=O (stereo not shown) [Compound 218, 6-(4-chlorophenyl)-1-methyl-4H-benzo[c]isoxazolo[4,5-e]azepine-4-carboxamide] | 
27 | > 1000 | > 1000 | 500 to 1000 | COc1ccc2c(n1)-c1c(C)noc1CN=C2c1ccc(Cl)cc1 [Compound 219, 5-(4-Chlorophenyl)-2-methoxy-10-methyl-7H-isoxazolo[5,4-c]pyrido[2,3-e]azepine] | 
28 | > 1000 | > 1000 | > 1000 | Cc1noc2c1-c1[nH]c(=O)ccc1C(c1ccc(Cl)cc1)=NC2 [Compound 220, 5-(4-Chlorophenyl)-10-methyl-1H-isoxazolo[5,4-c]pyrido[2,3-e]azepin-2(7H)-one] | 
29 |  | > 1000 | > 1000 | Cc1noc2c1-c1ccc(Cl)cc1C(c1ccc(F)cc1)=NC21CC1 [Compound 250, 8-Chloro-6-(4-fluorophenyl)-1-methylspiro[benzo[c]isoxazolo[4,5-e]azepine-4,1′-cyclopropane]] | 
30 |  | < 500 | < 500 | Cc1noc2c1-c1ccc(-c3ccc(N)nc3)cc1C(c1ccc(F)cc1)=NC21CC1 [Compound 251, 5-(6-(4-Fluorophenyl)-1-methylspiro[benzo[c]isoxazolo[4,5-e]azepine-4,1′-cyclopropan]-8-yl)pyridin-2-amine] | 
